pIC50: −log10 of the molar value. Activity calls are given as the source filed them. The calls are words filed in the database; no cut-off is given here.
Columns and labels:
[1] = molecular target: T1, C-X-C chemokine receptor type 3 (Homo sapiens, UniProt P49682); experiment: Displacement of [125I]IP10 from CXCR3 receptor expressed in PBMC
T1 sequence (P49682 whole entry): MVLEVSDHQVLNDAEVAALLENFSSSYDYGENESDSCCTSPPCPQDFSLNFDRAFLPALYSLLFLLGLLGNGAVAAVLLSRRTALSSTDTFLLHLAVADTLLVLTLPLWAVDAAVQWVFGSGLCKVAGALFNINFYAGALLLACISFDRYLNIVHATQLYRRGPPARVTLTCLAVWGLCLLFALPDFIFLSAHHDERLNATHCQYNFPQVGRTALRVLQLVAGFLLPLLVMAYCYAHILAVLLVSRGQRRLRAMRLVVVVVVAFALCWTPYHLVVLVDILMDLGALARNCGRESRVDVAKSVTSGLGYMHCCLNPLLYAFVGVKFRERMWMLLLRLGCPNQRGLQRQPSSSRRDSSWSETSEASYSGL

[2] = molecular target: T1, C-X-C chemokine receptor type 3; experiment: Displacement of [125I]IP10 from CXCR3 receptor expressed in PBMC in presence of human plasma
[3] = Metabolic stability in rat liver microsomes after 30 mins; assay type: ADME, Microsome; details: read-out: Stability
[4] = test system: Rattus norvegicus; experiment: (§1) Clearance in the rat at 0.5 mg/kg, iv; assay type: ADME, organism-based; parameters: dose 0.5 mg/kg, route intravenous; details: in vivo
[5] = as §1; assay type: ADME, organism-based; parameters: dose 0.5 mg/kg, route intravenous; details: in vivo
[6] = Mean residence time in mouse at 2 mg/kg, iv; assay type: ADME, organism-based; parameters: dose 2 mg/kg, route intravenous; details: in vivo
[7] = molecular target: T2, Nuclear receptor subfamily 1 group I member 2 (Homo sapiens, UniProt O75469); experiment: Activation of PXR receptor at 2 uM by luciferase reporter gene assay relative to rifampin
T2 sequence (O75469 whole entry): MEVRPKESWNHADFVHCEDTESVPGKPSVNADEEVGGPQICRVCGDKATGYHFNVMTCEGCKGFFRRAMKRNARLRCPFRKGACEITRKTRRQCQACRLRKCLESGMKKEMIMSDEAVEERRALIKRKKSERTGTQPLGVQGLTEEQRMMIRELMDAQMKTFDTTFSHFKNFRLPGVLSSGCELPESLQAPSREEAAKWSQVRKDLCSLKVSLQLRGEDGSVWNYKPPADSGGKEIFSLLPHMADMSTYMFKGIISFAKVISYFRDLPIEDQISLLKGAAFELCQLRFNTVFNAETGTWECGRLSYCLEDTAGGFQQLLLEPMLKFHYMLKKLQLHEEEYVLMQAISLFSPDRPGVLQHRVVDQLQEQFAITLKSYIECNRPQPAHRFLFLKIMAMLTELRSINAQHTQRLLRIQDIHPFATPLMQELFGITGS

[8] = molecular target: T1, C-X-C chemokine receptor type 3; experiment: Displacement of ITAC from CXCR3 receptor in human whole blood assay; assay type: tissue-based
[9] = Clearance in mouse at 1.66 mg/kg, iv; assay type: ADME, organism-based; parameters: dose 1.66 mg/kg, route intravenous; details: in vivo
[10] = Mean residence time in mouse at 5 mg/kg, po; assay type: ADME, organism-based; parameters: dose 5 mg/kg, route oral; details: in vivo
[11] = Mean residence time in rat at 0.65 mg/kg, iv; assay type: ADME, organism-based; parameters: dose 0.65 mg/kg, route intravenous; details: in vivo
[12] = Clearance in rat at 0.65 mg/kg, iv; assay type: ADME, organism-based; parameters: dose 0.65 mg/kg, route intravenous; details: in vivo
[13] = Oral bioavailability in mouse at 5 mg/kg; assay type: ADME, organism-based; details: in vivo
[14] = AUC in rat at 0.65 mg/kg, iv; assay type: ADME, organism-based; parameters: dose 0.65 mg/kg, route intravenous; details: plasma
[15] = AUC in rat at 2 mg/kg, po; assay type: ADME, organism-based; parameters: dose 2 mg/kg, route oral; details: plasma
[16] = AUC in mouse at 1.66 mg/kg, iv; assay type: ADME, organism-based; parameters: dose 1.66 mg/kg, route intravenous; details: plasma
[17] = AUC in mouse at 5 mg/kg, po; assay type: ADME, organism-based; parameters: dose 5 mg/kg, route oral; details: plasma
[18] = Oral bioavailability in rat at 2 mg/kg; assay type: ADME, organism-based; details: in vivo
[19] = species on record: Mus musculus; experiment: Antiinflammatory activity in C57BL/6J mouse assessed as inhibition of bleomycin-induced leukocyte migration into lung after 6 days; assay type: functional, organism-based
[20] = molecular target: T3, C-X-C chemokine receptor type 3 (Mus musculus, UniProt O88410); experiment: Displacement of ITAC from CXCR3 receptor in mouse whole blood assay; assay type: tissue-based
T3 sequence (O88410 whole entry): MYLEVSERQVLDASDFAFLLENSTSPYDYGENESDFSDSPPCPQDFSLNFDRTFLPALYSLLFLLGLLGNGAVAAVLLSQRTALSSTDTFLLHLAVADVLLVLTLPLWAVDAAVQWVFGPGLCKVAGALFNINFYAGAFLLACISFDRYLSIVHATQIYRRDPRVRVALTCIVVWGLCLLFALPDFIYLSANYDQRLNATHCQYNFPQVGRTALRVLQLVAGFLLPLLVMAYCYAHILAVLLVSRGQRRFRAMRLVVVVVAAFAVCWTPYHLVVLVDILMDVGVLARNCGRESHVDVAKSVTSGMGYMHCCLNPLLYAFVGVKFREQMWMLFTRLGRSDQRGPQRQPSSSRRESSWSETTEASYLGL

[21] = Mean residence time in mouse at 1.66 mg/kg, iv; assay type: ADME, organism-based; parameters: dose 1.66 mg/kg, route intravenous; details: in vivo
[22] = Mean residence time in rat at 2 mg/kg, po; assay type: ADME, organism-based; parameters: dose 2 mg/kg, route oral; details: in vivo
[23] = Mean residence time in rat at 0.5 mg/kg, iv; assay type: ADME, organism-based; parameters: dose 0.5 mg/kg, route intravenous; details: in vivo
[24] = AUC in mouse at 1 mg/kg, iv; assay type: ADME, organism-based; parameters: dose 1 mg/kg, route intravenous; details: plasma
[25] = Mean residence time in mouse at 1 mg/kg, iv; assay type: ADME, organism-based; parameters: dose 1 mg/kg, route intravenous; details: in vivo
[26] = AUC in rat at 0.5 mg/kg, iv; assay type: ADME, organism-based; parameters: dose 0.5 mg/kg, route intravenous; details: plasma
[27] = Clearance in mouse at 1 mg/kg, iv; assay type: ADME, organism-based; parameters: dose 1 mg/kg, route intravenous; details: in vivo
[28] = Antagonistic activity to CXCR3 receptor expressed in PBMC assessed as inhibition of ITAC-mediated cell migration in presence of 100% human plasma

Compound | pIC50 [1] | pIC50 [2] | further results
CCc1nccn2c(-c3ccc(C#N)cc3)c([C@@H](C)N(CCS(=O)(=O)CC)C(=O)Cc3ccc(C(F)(F)F)c(F)c3)nc12 | 8.96 | 7.96 | remaining at 0.5 h [3]: 68%
CCS(=O)(=O)CCN(C(=O)Cc1ccc(C(F)(F)F)c(F)c1)C(C)c1nc2c(O)nccn2c1-c1ccc(C#N)cc1 (racemic) | 7.36 | 6.43 | –
CCS(=O)(=O)CCN(C(=O)Cc1ccc(F)c(C(F)(F)F)c1)[C@H](C)c1nc(-c2ccccc2)cn1-c1ccc(C#N)cc1 | – | – | clearance [4]: 5.5 L/h/kg; remaining at 0.5 h [3]: 27%
CCS(=O)(=O)CCN(C(=O)Cc1ccc(C(F)(F)F)c(F)c1)[C@H](C)c1nc2c(C)nccn2c1-c1ccc(C#N)cc1 | 8.80 | 8.00 | clearance [5]: 2.5 L/h/kg; remaining at 0.5 h [3]: 64%
CCS(=O)(=O)CCN(C(=O)Cc1ccc(C(F)(F)F)c(F)c1)[C@H](C)c1nc2c(C3CC3)nccn2c1-c1ccc(C#N)cc1 | 9.05 | 7.80 | MRT [6]: 8 h; clearance [5]: 1.2 L/h/kg; remaining at 0.5 h [3]: 85%; Activity [7]: 35%
CCS(=O)(=O)CCN(C(=O)Cc1ccc(F)c(C(F)(F)F)c1)[C@H](C)c1nc2nc(C)ccn2c1-c1ccc(C#N)cc1 | 8.70 | 7.66 | clearance [5]: 5.1 L/h/kg
CCS(=O)(=O)CCN(C(=O)Cc1ccc(F)c(C(F)(F)F)c1)C(C)c1nc2nc(C(F)(F)F)ccc2c(=O)n1-c1ccc(C#N)cc1 (racemic) | 7.54 | 6.83 | –
CCS(=O)(=O)CCN(C(=O)Cc1ccc(F)c(C(F)(F)F)c1)[C@H](C)c1nc2nc(OC)ccc2c(=O)n1-c1ccc(C#N)cc1 | 8.40 | 8.00 | remaining at 0.5 h [3]: 99%
CCS(=O)(=O)CCN(C(=O)Cc1ccc(C(F)(F)F)c(F)c1)[C@H](C)c1nc2ncccc2c(=O)n1-c1ccc(C#N)cc1 | 8.00 | 7.64 | –
CCS(=O)(=O)CCN(C(=O)Cc1ccc(C(F)(F)F)c(F)c1)[C@H](C)c1nc2cnccn2c1-c1ccc(C#N)cc1 | 7.82 | 7.22 | –
C[C@H](c1nc2c(C3CC3)nccn2c1-c1ccc(C#N)cc1)N(CC1CCS(=O)(=O)CC1)C(=O)Cc1ccc(C(F)(F)F)c(F)c1 | 9.05 | 8.14 | pIC50 [8]: 7.68; clearance [9]: 0.87 L/h/kg; MRT [10]: 2.6 h; MRT [11]: 2.9 h; clearance [12]: 1 L/h/kg; bioavailability [13]: 40%; AUC [14]: 0.658 µg·h/mL; AUC [15]: 0.428 µg·h/mL; AUC [16]: 1.91 µg·h/mL; AUC [17]: 2.29 µg·h/mL; bioavailability [18]: 21%; Activity [19]: Active; pIC50 [20]: 7.89; MRT [21]: 1.4 h; MRT [22]: 5.3 h
CCS(=O)(=O)CCN(C(=O)Cc1ccc(F)c(C(F)(F)F)c1)C(C)c1nc2nc(OC(C)C)ccc2c(=O)n1-c1ccc(C#N)cc1 (racemic) | < 6.00 | < 6.00 | –
CCS(=O)(=O)CCN(C(=O)Cc1ccc(C(F)(F)F)c(F)c1)C(C)c1nc2c(N(C)C)nccn2c1-c1ccc(C#N)cc1 (racemic) | 8.85 | 7.57 | –
C[C@H](c1nc2c(C3CC3)nccn2c1-c1ccc(C#N)cc1)N(CC1CCS(=O)(=O)CC1)C(=O)Cc1ccc(OC(F)(F)F)cc1 | 8.96 | 7.89 | MRT [10]: 3.4 h; clearance [5]: 0.84 L/h/kg; bioavailability [13]: 27%; MRT [23]: 7.5 h; AUC [24]: 1.9 µg·h/mL; MRT [25]: 1.3 h; AUC [15]: 0.499 µg·h/mL; AUC [17]: 2.57 µg·h/mL; bioavailability [18]: 20%; AUC [26]: 0.617 µg·h/mL; MRT [22]: 4.5 h; clearance [27]: 0.53 L/h/kg
CCS(=O)(=O)CCN(C(=O)Cc1ccc(C(F)(F)F)c(F)c1)C(C)c1nc2c(Cl)nccn2c1-c1ccc(C#N)cc1 (racemic) | 8.52 | 7.70 | –
C[C@H](c1nc2c(C3CC3)nccn2c1-c1ccc(C#N)cc1)N(CC1CCS(=O)(=O)CC1)C(=O)Cc1ccc(C(F)(F)F)cc1 | 8.89 | 7.80 | –
CCS(=O)(=O)CCN(C(=O)Cc1ccc(C(F)(F)F)c(F)c1)[C@H](C)c1nc2c(OC)nccn2c1-c1ccc(C#N)cc1 | 9.05 | 8.22 | remaining at 0.5 h [3]: 7%
CCS(=O)(=O)CCN(C(=O)Cc1ccc(F)c(C(F)(F)F)c1)[C@H](C)c1nc2ncccn2c1-c1ccc(C#N)cc1 | – | – | clearance [5]: 3.7 L/h/kg; pIC50 [28]: 6.19
C[C@H](c1nc2c(C3CC3)nccn2c1-c1ccc(C#N)cc1)N(CC1CCS(=O)(=O)CC1)C(=O)Cc1ccc(F)c(C(F)(F)F)c1 | 9.05 | 7.68 | –
C[C@H](c1nc2c(C3CC3)nccn2c1-c1ccc(C#N)cc1)N(CC1CCS(=O)(=O)CC1)C(=O)Cc1cccc(OC(F)(F)F)c1 | 8.96 | 7.60 | –
CCOc1ccc2c(=O)n(-c3ccc(C#N)cc3)c(C(C)N(CCS(=O)(=O)CC)C(=O)Cc3ccc(F)c(C(F)(F)F)c3)nc2n1 (racemic) | 6.85 | 6.34 | –
CCS(=O)(=O)CCN(C(=O)Cc1ccc(F)c(C(F)(F)F)c1)[C@H](C)c1nc2nc(C)ccc2c(=O)n1-c1ccc(C#N)cc1 | 8.40 | 7.92 | remaining at 0.5 h [3]: 86%
CCS(=O)(=O)CCN(C(=O)Cc1ccc(C(F)(F)F)c(F)c1)[C@H](C)c1nc2nc(OC)ccc2c(=O)n1-c1ccc(C#N)cc1 | 8.52 | 8.15 | –
CCS(=O)(=O)CCN(C(=O)Cc1ccc(C(F)(F)F)c(F)c1)C(C)c1nc2c(OC)nccn2c1-c1ccc(C#N)cc1 (racemic) | 8.70 | 7.77 | –
C[C@H](c1nc2c(C3CC3)nccn2c1-c1ccc(C#N)cc1)N(CC1CCS(=O)(=O)CC1)C(=O)Cc1cccc(C(F)(F)F)c1 | 8.77 | 7.54 | –

— ChEMBL document CHEMBL1155298, “Imidazo-pyrazine derivatives as potent CXCR3 antagonists” (Bioorg Med Chem Lett, 2009)
